One data set concerns skin wounds. Description: Full-thickness excisional skin wound healing (wound area, re-epithelialization). The class given is in vivo, mice. Here is the method:
Male, 8 week old, ICR mice were used in the following experiments. All the mice were kept under specific pathogen-free conditions in an environmentally controlled clean room at University College London and all the experiments were carried out under UK Home Office regulations. Mice were anaesthetized by halothane inhalation. Four full-thickness excisional wounds of 6 mm diameter were made on the shaved back on either side of the dorsal midline with a 6 mm biopsy punch (Kai Industries). To each pair of wounds a single topical application of 50 μl of 1 μM Cx43 as ODN (SEQ. ID No. 2) (Sigma-Genosys) in 30% Pluronic F-127 gel (Sigma-Aldrich), chilled on ice, was made to one wound, and an identical application of 1 μM sense control sODNs was made to the other. […] Targeting connexin 43 expression accelerates the rate of wound repair. Curr Biol 13, 1697-703). Each wound region was digitally photographed at the indicated time intervals, and the areas of the wounds were calculated. All wound areas were expressed as percentages of the initial wound areas. In some series of experiments, wounds and their surrounding area, including the scab and epithelial margins, were harvested with an 8 mm biopsy punch (Kai Industries) at the indicated time intervals after mice were killed with an overdose of chloroform. A minimum of eight mice were used for each time point examined.

The next data set deals with MPO-positive neutrophils. Description: Neutrophil recruitment into wound site (anti-MPO staining). As to conditions: day 1 and 2, versus control. The data set is classed as in vivo, mice. As for the experimental part: Male, 8 week old, ICR mice were used in the following experiments. All the mice were kept under specific pathogen-free conditions in an environmentally controlled clean room at University College London and all the experiments were carried out under UK Home Office regulations. Mice were anaesthetized by halothane inhalation. Four full-thickness excisional wounds of 6 mm diameter were made on the shaved back on either side of the dorsal midline with a 6 mm biopsy punch (Kai Industries). To each pair of wounds a single topical application of 50 μl of 1 μM Cx43 as ODN (SEQ. ID No. 2) (Sigma-Genosys) in 30% Pluronic F-127 gel (Sigma-Aldrich), chilled on ice, was made to one wound, and an identical application of 1 μM sense control sODNs was made to the other. […] R. and Becker, D. L. (2003). Targeting connexin 43 expression accelerates the rate of wound repair. Curr Biol 13, 1697-703). Each wound region was digitally photographed at the indicated time intervals, and the areas of the wounds were calculated. All wound areas were expressed as percentages of the initial wound areas. […]
A treatment-blinded observer counted MPO-positive neutrophils and F4/80-positive macrophages in the wound bed (defined as the area surrounded by unwounded skin, fascia, regenerated epidermis, and eschar) in 3 random high-power fields of 0.332 mm^2. […]

For a further data set, the system named is TGF-β1. Description: Immunostaining for TGF-β1 at wound sites. The data set is classed as in vivo, mice. As to conditions: 2 days. As for the experimental part: Male, 8 week old, ICR mice were used in the following experiments. All the mice were kept under specific pathogen-free conditions in an environmentally controlled clean room at University College London and all the experiments were carried out under UK Home Office regulations. Mice were anaesthetized by halothane inhalation. Four full-thickness excisional wounds of 6 mm diameter were made on the shaved back on either side of the dorsal midline with a 6 mm biopsy punch (Kai Industries). To each pair of wounds a single topical application of 50 μl of 1 μM Cx43 as ODN (SEQ. ID No. 2) (Sigma-Genosys) in 30% Pluronic F-127 gel (Sigma-Aldrich), chilled on ice, was made to one wound, and an identical application of 1 μM sense control sODNs was made to the other. […] R. and Becker, D. L. (2003). Targeting connexin 43 expression accelerates the rate of wound repair. Curr Biol 13, 1697-703). Each wound region was digitally photographed at the indicated time intervals, and the areas of the wounds were calculated. All wound areas were expressed as percentages of the initial wound areas. In some series of experiments, wounds and their surrounding area, including the scab and epithelial margins, were harvested with an 8 mm biopsy punch (Kai Industries) at the indicated time intervals after mice were killed with an overdose of chloroform. A minimum of eight mice were used for each time point examined. […]

Data set [1] concerns human limbal epithelial cells. Description: Human limbal rim-denuded pig stromal matrix chimera re-epithelialisation. The data set is classed as cell-based. To be noted: treated at day one; controls 7 to 14 days. Here is the method:
Human limbal rims returned from surgery after excision of the central corneas for keratoplasty (transplant) were placed into air liquid interface organotypic culture and a denuded pig stromal extracellular matrix inserted into the central region (FIG. 14). The pig stromal matrix was denuded (cells removed) by freeze-thawing in liquid nitrogen.
The chimeras were grown for up to 2 weeks at which time the human limbal epithelial cells have re-epithelialised the pig stroma with a normal 5-7 cell layer fully differentiated epithelium. In addition, human limbal stromal keratocytes have proliferated and migrated across the limbal rim—stromal insert to repopulate the pig stromal matrix with human keratocytes.
In a further experiment the chimeras were treated with connexin 43 specific antisense ODNs at day one.

The source of these data is US9457044B2, “Methods and compositions for wound healing” (CoDa Therapeutics, Inc., priority 2006, dated 2016).

Regarding “GTAATTGCGGCAGGAGGAATTGTTTCTGTC (antisense GTAATTGCGGCAGGAGGAATTGTTTCTGTC; in Pluronic F-127 gel, further chemistry not given here) [Cx43 asODN]”, the “macroscopic wound appearance and closure versus control wounds” value in the data set with skin wounds (days 1 and 2) was “significantly smaller, drier, less inflamed and closed faster”. Moreover, the “re-epithelialisation versus control ODN treated wounds” value with skin wounds (excisional and incisional wounds) was “re-epithelialise more rapidly”. Further, in the data set on MPO-positive neutrophils, the “neutrophil numbers at wound site” value is recorded as “significantly reduced”. For the same sequence, in the data set on TGF-β1, the “TGF-β1 positive elongated fibroblast-like cells at the dermal margins of the wound” value is reported as “an additional TGF-β1 positive cell type could be seen in large numbers” and the “TGF-β1 staining in the epidermis versus control wound epidermis” value was “much more strongly”. The “time to full epithelial covering of the pig stroma” value in data set [1] is not above 3 days.
